Source: patent US20240285769A1, “INJECTABLE, BIODEGRADABLE AND REMOVABLE POLYMER BASED DRUG SUSPENSION FOR ULTRA-LONG-ACTING DRUG DELIVERY” (The University of North Carolina at Chapel Hill, priority 2021, published 2024)

Legend:
[1] = In vitro drug release studies of ISFIs; format: physicochemical; conditions: ISFI suspension 1:4 PLGA/(NMP:DMSO), 290 mg/g
Experimental: Sample aliquots (1 mL) were collected at various time points and replaced with fresh release medium. The release medium was completely removed and replaced with fresh medium every week to maintain sink conditions. Drug concentration in the release samples was quantified by HPLC using the method described above. Cumulative drug release was calculated from the HPLC analysis and normalized to the total mass of drug in the implant. All experiments were performed in quadruplicate. ISFIs were prepared with 1:2 w/w PLGA:(NMP/DMPS 1:1) (PLGA MW 27 kDa, 50:50 LA/GA). […] To investigate the effect of polymer MW on CAB release kinetics, two CAB suspension ISFIs were prepared using PLGA (50:50 LA/GA) with MW of 10 kDa and 27 kDa. CAB was loaded at a constant concentration of 250 mg/g as a stable suspension formulation in a 1:2 PLGA/solvent (solvent=NMP/DMSO 1:1 w/w). […] 55 μg/d compared to 13.53 μg/d for PLGA MW 27 kDa. […] The effect of formulation composition and addition of rate controlling polymers like star-PLGA (5-arm 50:50 LA/GA PLGA MW 54 kDa) on drug release kinetics were also investigated. Three formulations were prepared using NMP/DMSO (1:1) as a co-solvent system, PLGA (50:50 LA/GA MW 27 kDa) and PLGA/star-PLGA (9:1 w/w) polymer combination. CAB was loaded at a constant concentration of 300 mg/g in all three formulations. […]

[2] = Preparation and optimization of drug suspension formulations; format: physicochemical
Experimental: The polymer based drug suspensions were prepared by: (1) Placebo formulation: 50:50 Poly(DL-lactide-co-glycolide) (PLGA), MW 10 or 27 kDa, or Poly(lactic acid) (PLA) MW 10 kDa, was mixed with N-methyl-2-pyrrolidone (NMP) or a combination of NMP and DMSO (e.g. 1:1 v/v) at various weight ratios of PLGA/solvent (w/w) and allowed to dissolve by continuous mixing at room temperature (Placebo). […] (2) Drug loading: […] (3) Depot formation: A sample from the resulting drug-loaded suspension formulation (30 μL, 30±3 mg) was injected into 200 mL of 0.01 M PBS pH 7.4 using a pipette and incubated at 37° C. for 24 h to produce a spherical implant, as an example. […] Of importance, but without being limited to any particular theory or mechanism of action, is the ratio of the polymer:solvent:drug that achieves high drug loading in a stable polymeric suspension formulation and which is correlated to the drug's saturation solubility in the solvent system.

- burst release in 24 h ([1]; PBS 37° C.): < 2%
- drug release at d3 ([1]; last timepoint analyzed): 3%
- suspension formation when loaded above saturation concentration in PLGA/solvent placebo [2]: formed stable syringeable formulations
- depot formation when injected into aqueous release medium ([2]; PBS, pH 7.4, 37° C.): formation of stable depots
SMILES: Cn1c(Cn2ccc(C(F)(F)F)c(Oc3cc(Cl)cc(C#N)c3)c2=O)n[nH]c1=O [DOR, Doravirine]
